{"source": "patent US20260007729A1", "about": "“IM[…] VIRAL […](S)” (IMMUNEO Therapeutics GmbH, priority 2022, published 2026)", "key": {"[1]": {"test_system": "PBMCs from a healthy adult human", "assay": "IFNγ ELISpot analysis of antigen peptides ex vivo", "format": "cell-based", "conditions": "for Activation*10 (IFNγ activity, activation values times 10): calculated by formula, neg 36.0; for Cells/100,000 cells (positive counts per 100,000 cells): cells pre-stimulated with peptide pool, 267,000 cells per well, duplicates; for Effectiveness of immunization (product of number of activated cells and activation): FIG. 11, descending order"}, "[2]": {"test_system": "T cell CD4 and CD8 activity", "assay": "Antigen response in mice, second trial (immunization, intracellular cytokine staining)", "format": "in vivo, wild-type mice (C57BL/6)", "conditions": "mice immunized with Pep2 C, restimulation with peptides (FIG. 9)", "method": "3 Groups of wild-type mice (C57BL/6) consisting of 5 mice (group 2,3) and 3 mice for the negative control (group 1) were administered different vaccine candidates (as following) for evaluation.\nThe Groups were administered the following compositions: • a) Group 1 (no vac.): no vaccine • b) Group 2 (Pep2 C): peptide mix (60 μg per single peptide, 12 peptides selected from SEQ ID NOs: 43, 44, 46, 47, 50-58) with c-di-AMP (10 mg/dose) adjuvant • c) Group 3 (mRNA): Comirnaty mRNA vaccine (5 μg/dose)\nThe antigen peptide formulations in accordance with the present invention were administered subcutaneous (SC) three times in two-week intervals (see FIG. 7), the mRNA vaccine was administered intramuscular (IM) two times in a four-week interval (Group 3). After five weeks the immune response was determined, T cell CD8 activity was examined by cytokines secreted in response to stimulation with the peptide antigens were determined by intracellular cytokine staining (ICS) with Intracellular cytokine staining with IFNγ and TNFγ. Specific antibodies."}, "[3]": {"test_system": "peripheral blood mononuclear cells (PBMCs) from a human donor", "assay": "Intracellular Cytokine Staining (ICS) of antigen polypeptides", "format": "cell-based", "method": "An Intracellular Cytokine Staining (ICS) assay to assess the T-cell responses induced by an antigen polypeptide in the spirit of the current invention was carried out following this experimental procedure. The experimental procedure involved several sequential steps to prepare and analyze freshly harvested peripheral blood mononuclear cells (PBMCs) from a human donor.\nPBMCs were cultured in RPMI-1640 medium supplemented with 10% fetal bovine serum, penicillin-streptomycin, and L-glutamine at 37° C. with 5% CO2. After culture, the cells were divided into different experimental groups. The cells were then stimulated with the antigen peptide vaccine or a control peptide, along with appropriate cytokines and co-stimulatory molecules to facilitate T cell activation. The antigen peptide was designed to effectively stimulate both CD4 and CD8 T-cell responses.\nTo inhibit cytokine secretion and promote intracellular cytokine accumulation, brefeldin A was added to the stimulated cells at a concentration of 10 μg/mL, and the cells were incubated overnight. Subsequently, the cells were harvested, and staining was performed. Fluorescently labeled antibodies, including AlexaFluor 488-conjugated anti-IFNγ and APC-H7-conjugated anti-CD4, as well as Pacific Orange-conjugated anti-CD8 and a cell surface marker were added to the cells and incubated.\nTo facilitate antibody access to intracellular molecules, the cells were fixed and permeabilized using a fixation solution and permeabilization buffer. Intracellular cytokine staining was carried out by adding fluorescently labeled antibodies against IFNγ or other cytokines of interest. Following staining, flow cytometry analysis was performed by gating on CD4 and CD8 T cells to determine the percentage of cytokine-producing cells.\nThe obtained data were analyzed to compare the percentage of cytokine-producing CD4 and CD8 T cells stimulated with the antigen polypeptides to that of unstimulated CD4 and CD8 T cells or T cells stimulated with a control peptide. […]"}}}
{"sequence": "AATKMSECVLGQSKRVD [Pep-9]", "values": [{"measurement": "Activation*10 (IFNγ activity, activation values times 10)", "setting": "[1]", "value": 38.0}, {"measurement": "Cells/100,000 cells (positive counts per 100,000 cells)", "setting": "[1]; neg 25.8", "value": "22.1 Cells/100,000 cells"}]}
{"sequence": "AISSVLNDILSRLDKVE [Pep-10]", "values": [{"measurement": "Activation*10 (IFNγ activity, activation values times 10)", "setting": "[1]", "value": 34.8}, {"measurement": "Cells/100,000 cells (positive counts per 100,000 cells)", "setting": "[1]; neg 25.8", "value": "17.2 Cells/100,000 cells"}]}
{"sequence": "DGYFKIYSKHTPINLV [Pep-17]", "values": [{"measurement": "Effectiveness of immunization (product of number of activated cells and activation)", "setting": "[1]", "value": "most effective"}, {"measurement": "Activation*10 (IFNγ activity, activation values times 10)", "setting": "[1]", "value": 99.6}, {"measurement": "Cells/100,000 cells (positive counts per 100,000 cells)", "setting": "[1]; neg 25.8", "value": "249.1 Cells/100,000 cells"}, {"measurement": "Cells/100,000 cells (positive counts per 100,000 cells)", "setting": "[1]; neg 25.8, listed as Peptide 17", "value": "especially high counts"}]}
{"sequence": "GDCLGDIAARDLIC [Pep-14]", "values": [{"measurement": "Effectiveness of immunization (product of number of activated cells and activation)", "setting": "[1]", "value": "most effective"}, {"measurement": "Cells/100,000 cells (positive counts per 100,000 cells)", "setting": "[1]; neg 25.8", "value": "262.2 Cells/100,000 cells"}, {"measurement": "Cells/100,000 cells (positive counts per 100,000 cells)", "setting": "[1]; neg 25.8, listed as Peptide 14", "value": "especially high counts"}]}
{"sequence": "GKEDLKFPRGQGVPINTNSS [Pep-18]", "values": [{"measurement": "Activation*10 (IFNγ activity, activation values times 10)", "setting": "[1]", "value": 10.1}, {"measurement": "Cells/100,000 cells (positive counts per 100,000 cells)", "setting": "[1]; neg 25.8", "value": "24.3 Cells/100,000 cells"}]}
{"sequence": "IRAAEIRASANLAATKM [Pep-21]", "values": [{"measurement": "Effectiveness of immunization (product of number of activated cells and activation)", "setting": "[1]", "value": "most effective"}, {"measurement": "Cells/100,000 cells (positive counts per 100,000 cells)", "setting": "[1]; neg 25.8", "value": "50.9 Cells/100,000 cells"}]}
{"sequence": "KDLSPRWYFYYLGTG [Pep-20]", "values": [{"measurement": "Activation*10 (IFNγ activity, activation values times 10)", "setting": "[1]", "value": 93.3}, {"measurement": "Cells/100,000 cells (positive counts per 100,000 cells)", "setting": "[1]; neg 25.8", "value": "31.5 Cells/100,000 cells"}]}
{"sequence": "LGKYEQYIKWPWYIWLGFIAG [Pep-15]", "values": [{"measurement": "Activation*10 (IFNγ activity, activation values times 10)", "setting": "[1]", "value": 36.5}, {"measurement": "Cells/100,000 cells (positive counts per 100,000 cells)", "setting": "[1]; neg 25.8", "value": "16.9 Cells/100,000 cells"}]}
{"sequence": "MAYRFNGIGVTQNVLYE [Pep-7]", "values": [{"measurement": "Effectiveness of immunization (product of number of activated cells and activation)", "setting": "[1]", "value": "most effective"}, {"measurement": "Cells/100,000 cells (positive counts per 100,000 cells)", "setting": "[1]; neg 25.8", "value": "41.9 Cells/100,000 cells"}, {"measurement": "Single peptide-specific CD8 T cell reaction", "setting": "[2]", "value": "caused a CD8 T cell reaction"}, {"measurement": "CD8 / CD8+ response in ICS", "setting": "[3]; FIG. 5, FIG. 9, groups of Table E7-1", "value": "strong CD8+ response"}, {"measurement": "CD4 response in ICS", "setting": "[3]; FIG. 8, groups of Table E7-1", "value": "some CD4 response"}, {"measurement": "Individual activities in the ICS study", "setting": "[3]; single peptides", "value": "high individual activities"}]}
{"sequence": "RQGTDYKHWPQIAQF (synthetic peptide used as antigen comprising at least one HLA antigen peptide) [Pep-19]", "values": [{"measurement": "Activation*10 (IFNγ activity, activation values times 10)", "setting": "[1]", "value": 36.6}, {"measurement": "Cells/100,000 cells (positive counts per 100,000 cells)", "setting": "[1]; neg 25.8", "value": "21.3 Cells/100,000 cells"}]}
{"sequence": "TFEYVSQPFLMDLEGKQ [Pep-13]", "values": [{"measurement": "Effectiveness of immunization (product of number of activated cells and activation)", "setting": "[1]", "value": "most effective"}, {"measurement": "Activation*10 (IFNγ activity, activation values times 10)", "setting": "[1]", "value": 53.1}, {"measurement": "Cells/100,000 cells (positive counts per 100,000 cells)", "setting": "[1]; neg 25.8", "value": "322.8 Cells/100,000 cells"}, {"measurement": "Cells/100,000 cells (positive counts per 100,000 cells)", "setting": "[1]; neg 25.8, listed as Peptide 13", "value": "especially high counts"}]}
